The text below walks through data of patent US20230079045A1 (priority 2019, published 2023).

Holding throughout (format): cell-based, influenza virus
For one test, the system named is IFV A/PR/8/34. The test can be described thus: cytopathic effect (CPE) antiviral test in MDCK cells, IFV A/PR/8/34. The settings on record: unidentified influenza virus, PR/8, MDCK, 120 h, read-out: EC50(IFV A/PR/8/34). On the technique in general: Damage to the host cells serves as the signal in cytopathic effect assays.
The test system of another test is IFVA/Weiss/43. The test can be described thus: cytopathic effect (CPE) antiviral test in MDCK cells, IFVA/Weiss/43. The settings on record: unidentified influenza virus, MDCK, 120 h, read-out: EC50(IFVA/Weiss/43), MDCK cells, CPE method, CCK-8 cell viability, 5 days.
Another test concerns IFVA/Mal/302/54. The test can be described thus: cytopathic effect (CPE) antiviral test in MDCK cells, IFVA/Mal/302/54. The settings on record: unidentified influenza virus, MDCK, 120 h, read-out: EC50(IFVA/Mal/302/54), MDCK cells, CPE method, CCK-8 cell viability, 5 days.

Turning to `O=C(c1cc(-c2nc3cc(-c4nccs4)ccc3o2)ccn1)N1CCN(C(c2ccccc2)c2nnn(C(F)F)n2)CC1` (racemic) [Compound 119, (R/S)-(4-((2-(difluoromethyl)-2H-tetrazol-5-yl)(phenyl)methyl)piperazin-1-yl)(4-(5-(thiazol-2-yl)benzo[d]oxazol-2-yl)pyridin-2-yl)methanone], the results for the EC50 with IFV A/PR/8/34, in the test with IFVA/Weiss/43 and with IFVA/Mal/302/54 were 22 nM, 2 nM and 6 nM, respectively.
For `Cn1ccnc1-c1ccc2nc(-c3ccnc(C(=O)N4CCN(C(c5ccccc5)c5nnn(C(F)F)n5)CC4)c3)oc2c1` (racemic) [Compound 107, (R/S)-(4-((2-(difluoromethyl)-2H-tetrazol-5-yl)(phenyl)methyl)piperazin-1-yl)(4-(6-(1-methyl-1H-imidazol-2-yl)benzo[d]oxazol-2-yl)pyridin-2-yl)methanone], in that order: 9 nM, 2 nM and 6 nM.
For `[2H]C([2H])([2H])C(C(=O)Nc1ccc2oc(-c3ccnc(C(=O)N4CCN(C(c5ccccc5)c5nnn(C(F)F)n5)CC4)c3)nc2c1)C([2H])([2H])[2H]` (racemic) [Compound 109, (R/S)—N-(2-(2-(4-((2-(difluoromethyl)-2H-tetrazol-5-yl)(phenyl)methyl)piperazine-1-carbonyl)pyridin-4-yl)benzo[d]oxazol-5-yl)-2-(methyl-d3)propanamide] the same measures were 12 nM, 6 nM and 11 nM.
For `Cn1cc(-c2ccc3oc(-c4ccnc(C(=O)N5CCN(C(c6ccccc6)c6nnn(C(F)F)n6)CC5)c4)nc3c2)cn1` (racemic) [Compound 105, (R/S)-(4-((2-(difluoromethyl)-2H-tetrazol-5-yl)(phenyl)methyl)piperazin-1-yl)(4-(5-(1-methyl-1H-pyrazol-4-yl)benzo[d]oxazol-2-yl)pyridin-2-yl)methanone] the same measures were 11 nM, 7 nM and 9 nM.
`[2H]C([2H])([2H])C(=O)Nc1ccc2oc(-c3ccnc(C(=O)N4CCN(C(c5ccccc5)c5nnn(C(F)F)n5)CC4)c3)nc2c1` (racemic) [Compound 114, (R/S)—N-(2-(2-(4-((2-(difluoromethyl)-2H-tetrazol-5-yl)(phenyl)methyl)piperazine-1-carbonyl)pyridin-4-yl)benzo[d]oxazol-5-yl) Deuterated Acetamide]: the EC50 was determined as 25 nM in the test with IFV A/PR/8/34, 19 nM in the test with IFVA/Weiss/43 and 10 nM with IFVA/Mal/302/54.
In the case of `Cn1nnc(C(c2ccccc2)N2CCN(C(=O)c3cc(-c4nc5cc(N6CCCC6=O)ccc5o4)ccn3)CC2)n1` (racemic) [Compound 45, (R/S)-1-(2-(2-(4-((2-methyl-2H-tetrazol-5-yl)(phenyl)methyl)piperazine-1-carbonyl)pyridin-4-yl)benzo[d]oxazol-5-yl)pyrrolidin-2-one], the EC50 was determined as 27 nM with IFV A/PR/8/34, 15 nM in the test with IFVA/Weiss/43 and 12 nM in the test on IFVA/Mal/302/54.
